From US20080318974A1, “Compounds Useful for Inhibiting Chk1” (Icos Corporation, priority 2004, published 2008)

Tested on: HT29 and Colo205 (human colon carcinoma) and H460 and Calu-6 (nonsmall cell carcinoma) xenograft tumors
Test: Xenograft animal tumor models
Assay type: in vivo
Conditions: gemcitabine 160 mg/kg i.p., Balb/c (nu/nu) mice
From the text: To test the ability of the Chk1 inhibitors of the invention to enhance the killing of tumors by DNA damaging agents in mice, xenograft tumor models using colon tumor cell lines are established. 5-fluorouracil (5-FU) or gemcitabine can be used as DNA damaging agents. HT29 and Colo205 (human colon carcinoma) and H460 and Calu-6 (nonsmall cell carcinoma) cells can be used to propagate xenograft tumors in 6-8 week old female […] Balb/c (nu/nu) mice. Mice are maintained in a laminar airflow cabinet under pathogen-free conditions and fed sterile food and water ad libitum. Cell lines are grown to subconfluence in RPMI 1640 media supplemented with 10% FBS, 100 U/mL penicillin, 100 μg/mL streptomycin, and 1.5 mM L-glutamine in a 5% CO2 humidified environment. Single cell suspensions are prepared in CMF-PBS, and cell concentration adjusted to 1×10^8 cells/mL. Mice are inoculated subcutaneously (s.c.) on the right flank or right leg with a total of 1×10^7 cells (100 μL). Mice are randomized (5-15 mice/group) into four treatment groups and used when tumors reach a volume of […] (usually 7-11 days post-inoculation). Tumors are measured with […] calipers and tumor volumes are estimated using the empirically derived formula: tumor volume (cm^3)=tumor length (cm) x tumor width (cm)×tumor depth (cm)/3.3. […] Tumor size is monitored every other day for the duration of the experiment.

In the case of `Nc1ccn([C@@H]2O[C@H](CO)[C@@H](O)C2(F)F)c(=O)n1` [gemcitabine, 2′,2′ difluoro-2′-deoxycytidine], the tumor growth is reported as “delay in tumor growth”.
